Reference: article PMC7215373, “Design, Synthesis, and Anticancer Evaluation of Novel Indole Derivatives of Ursolic Acid as Potential Topoisomerase II Inhibitors” (International Journal of Molecular Sciences, 2020)
Like-named read-outs stand apart in the source and are kept apart here.

Experiments:
[1] = tested on: HepG2 cells; set-up: method as in PMID 25537271; settings: earlier in vitro cytotoxic assay; read-out: IC50 against HepG2; cited from earlier work
[2] = biological target: T1, Human Topoisomerase IIα (Homo sapiens, UniProt P11388); assay: Topoisomerase II relaxation assay (supercoiled pBR322); format: biochemical; settings: for inhibition at 20 µM: 20 μM compound, read-out: Topo II Inhibition (%) 20 μM; for inhibition at 100 µM: 100 μM compound, read-out: Topo II Inhibition (%) 100 μM
T1 construct: purchased USB, Affymetrix, Waltham, MA, USA
Protocol: The effect of the tested compounds on Topo I and II activities were evaluated by Topo I/II relaxation assays. The reaction products, relaxed DNA could be distinguished from supercoiled DNA by gel electrophoresis and visualized using gel imaging system. Human Topoisomerase IIα activity was detected by measuring the relaxation of supercoiled pBR322 plasmid DNA [22]. […] For inhibition studies, the compounds were pre-incubated with human Topo IIα and DNA for 15 min. Compounds were used at the appropriate concentrations by dissolving in 2% (v/v) DMSO. DMSO didn't show detrimental effect on the enzyme activity at concentration up to 2% (v/v). Reaction mixture was incubated at 37 °C for 30 min and stopped by the addition of 7 mM EDTA. Reaction product was mixed with DNA loading dye and electrophoresed on 1% TAE-Agarose. The gel was stained with ethidium bromide (0.5 μg/mL) for 30 min, destained twice in 1× TAE buffer, and then visualized using a BIO-RAD Gel Doc XR+ System. Etoposide (VP-16) was co-assayed as a positive control.

[3] = tested on: LO2 cells; assay: MTT cytotoxicity assay, normal hepatocyte LO2; format: cell-based; settings: Homo sapiens, L02, 48 h exposure, normal hepatocyte cell line
Protocol: (§1) The in vitro cytotoxic activities of synthesized compounds were evaluated against two human hepatocarcinoma cell lines (SMMC-7721 and HepG2) and the human normal hepatocyte cell line (LO2) via MTT assay. All tested compounds were dissolved in DMSO and the stock solutions were diluted by DMEM medium before treatment of the cultured cells. […] Cell lines were obtained from American Tissue Culture Collection (ATCC). Briefly, different tumor cells were grown in DMEM medium supplemented with 10% fetal bovine serum, penicillin (100 U/mL), and streptomycin (50 μg/mL). Cells were harvested at log phase of growth and seeded in 96-well plates (100 μL/well at a density of 2 × 10^5 cells/mL). After 24 h incubation at 37 °C and 5% CO2 to allow cell attachment, cultures were exposed to various concentrations of the isolated compounds for 48 h. Finally, MTT solution (2.5 mg/mL in PBS) was added (40 μL/well). Plates were further incubated for 4 h at 37 °C, and the formazan crystals formed were dissolved by adding 150 μL/well of DMSO. Absorption at 570 nm was measured with an ELISA plate reader. […] Doxorubicin, camptothecin, and etoposide (VP-16) were co-assayed as positive controls.

[4] = biological target: T2, DNA topoisomerase I (Bos taurus, UniProt F1MN93); assay: Topoisomerase I relaxation assay (supercoiled pBR322); format: biochemical; settings: for inhibition at 20 µM: 20 μM compound, read-out: Topo I Inhibition (%) 20 μM; for inhibition at 100 µM: 100 μM compound, read-out: Topo I Inhibition (%) 100 μM
T2 construct: purchased TaKaRa, Kyoto, Japan
T2 sequence (F1MN93 1-767): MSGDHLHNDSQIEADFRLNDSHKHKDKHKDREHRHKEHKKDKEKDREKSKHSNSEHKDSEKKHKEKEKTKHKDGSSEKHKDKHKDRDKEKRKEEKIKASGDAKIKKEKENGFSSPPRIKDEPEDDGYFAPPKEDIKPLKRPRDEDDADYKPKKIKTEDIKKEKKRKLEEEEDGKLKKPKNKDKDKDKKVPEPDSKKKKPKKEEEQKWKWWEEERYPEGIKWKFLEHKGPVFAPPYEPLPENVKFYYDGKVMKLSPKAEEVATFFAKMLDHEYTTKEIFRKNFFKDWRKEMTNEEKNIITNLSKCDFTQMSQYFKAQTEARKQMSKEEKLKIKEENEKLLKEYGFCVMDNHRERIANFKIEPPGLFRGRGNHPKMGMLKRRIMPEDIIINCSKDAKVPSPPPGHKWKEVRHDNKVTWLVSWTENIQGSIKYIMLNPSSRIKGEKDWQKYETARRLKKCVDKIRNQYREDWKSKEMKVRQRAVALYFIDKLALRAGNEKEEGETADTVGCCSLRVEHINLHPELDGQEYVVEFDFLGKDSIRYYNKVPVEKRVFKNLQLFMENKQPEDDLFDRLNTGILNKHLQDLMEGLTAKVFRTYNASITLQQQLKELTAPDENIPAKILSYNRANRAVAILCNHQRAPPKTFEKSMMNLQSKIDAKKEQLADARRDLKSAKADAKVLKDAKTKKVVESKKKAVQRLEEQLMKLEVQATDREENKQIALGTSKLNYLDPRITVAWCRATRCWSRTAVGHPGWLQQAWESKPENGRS
Protocol: The effect of the tested compounds on Topo I and II activities were evaluated by Topo I/II relaxation assays. The reaction products, relaxed DNA could be distinguished from supercoiled DNA by gel electrophoresis and visualized using gel imaging system. The activity of DNA topoisomerase I (TaKaRa, Kyoto, Japan) was determined by measuring the relaxation of supercoiled DNA pBR322 [32]. Camptothecin was used as a positive control. The reaction mixture was prepared according to the manufacture's protocol, and incubated at 37 °C for 30 min. The reactions were terminated by adding dye solution containing 1% SDS, 0.02% bromophenol blue and 50% glycerol. The mixtures were applied to 1% agarose gel and subjected to electrophoresis for 1 h, in 1× TAE buffer (40 mM Tris-acetate, 1 mM EDTA). Gels were stained for 30 min in 60 mL 1× TAE buffer with ethidium bromide (0.5 μg/mL). DNA bands were visualized by transillumination with UV light and then photographed by a Gel Doc XR+ System (BIO-RAD, Hercules, CA, USA).

[5] = tested on: HepG2 cells; assay: MTT cytotoxicity assay, HepG2; format: cell-based, human; settings: 48 h exposure
Protocol: as §1

[6] = tested on: SMMC-7721 cells; assay: MTT cytotoxicity assay, SMMC-7721; format: cell-based, human; settings: 48 h exposure
Protocol: as §1

[7] = tested on: SMMC-7721 cells; set-up: method as in PMID 25537271; settings: earlier in vitro cytotoxic assay; read-out: IC50 against SMMC-7721; cited from earlier work

T1 sequence (P11388 whole entry): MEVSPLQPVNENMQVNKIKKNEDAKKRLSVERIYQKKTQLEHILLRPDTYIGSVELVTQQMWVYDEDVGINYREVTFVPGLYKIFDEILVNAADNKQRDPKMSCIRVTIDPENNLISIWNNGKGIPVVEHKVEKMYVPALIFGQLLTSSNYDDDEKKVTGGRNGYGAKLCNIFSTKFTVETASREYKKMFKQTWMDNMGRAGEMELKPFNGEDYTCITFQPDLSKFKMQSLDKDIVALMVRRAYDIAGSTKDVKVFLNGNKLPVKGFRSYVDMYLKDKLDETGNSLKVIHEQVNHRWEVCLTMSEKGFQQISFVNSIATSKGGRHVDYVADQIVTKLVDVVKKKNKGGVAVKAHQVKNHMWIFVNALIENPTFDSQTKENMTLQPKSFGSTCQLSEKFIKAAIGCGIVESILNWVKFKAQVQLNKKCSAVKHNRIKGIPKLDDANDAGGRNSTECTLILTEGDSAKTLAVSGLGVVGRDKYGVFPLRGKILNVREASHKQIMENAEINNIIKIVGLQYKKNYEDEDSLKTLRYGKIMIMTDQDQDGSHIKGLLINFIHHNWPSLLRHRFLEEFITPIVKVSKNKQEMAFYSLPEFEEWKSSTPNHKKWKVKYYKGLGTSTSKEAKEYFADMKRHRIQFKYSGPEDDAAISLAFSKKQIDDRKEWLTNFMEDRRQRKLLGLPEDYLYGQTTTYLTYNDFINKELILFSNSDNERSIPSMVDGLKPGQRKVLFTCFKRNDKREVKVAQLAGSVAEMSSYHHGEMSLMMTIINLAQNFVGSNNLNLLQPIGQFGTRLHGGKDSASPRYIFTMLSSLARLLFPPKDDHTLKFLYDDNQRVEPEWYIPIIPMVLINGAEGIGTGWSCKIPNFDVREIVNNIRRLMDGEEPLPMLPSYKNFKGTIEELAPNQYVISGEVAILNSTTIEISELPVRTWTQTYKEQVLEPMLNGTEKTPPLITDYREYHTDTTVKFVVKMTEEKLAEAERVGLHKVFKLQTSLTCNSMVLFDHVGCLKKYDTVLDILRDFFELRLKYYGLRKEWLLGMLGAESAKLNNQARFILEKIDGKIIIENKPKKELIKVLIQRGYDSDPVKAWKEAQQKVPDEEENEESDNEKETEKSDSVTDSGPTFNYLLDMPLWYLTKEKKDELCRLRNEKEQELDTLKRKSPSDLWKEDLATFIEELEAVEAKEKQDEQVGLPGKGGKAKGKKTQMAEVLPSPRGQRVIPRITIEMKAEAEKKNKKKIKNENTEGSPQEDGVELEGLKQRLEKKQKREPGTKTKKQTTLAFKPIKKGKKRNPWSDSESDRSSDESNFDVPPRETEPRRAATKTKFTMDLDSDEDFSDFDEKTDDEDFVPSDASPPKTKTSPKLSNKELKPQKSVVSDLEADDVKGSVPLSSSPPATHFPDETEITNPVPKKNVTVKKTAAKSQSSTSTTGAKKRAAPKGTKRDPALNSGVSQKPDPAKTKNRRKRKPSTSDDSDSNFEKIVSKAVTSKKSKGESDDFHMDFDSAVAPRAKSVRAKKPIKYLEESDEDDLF

Compound | IC50 [1] [nM] | inhibition at 20 µM [2] [%] | inhibition at 100 µM [2] [%] | inhibitory activity to Topo IIα ([2]; preliminary screening) | IC50 [3] [µM] | inhibition at 20 µM [4] [%] | inhibition at 100 µM [4] [%] | inhibitory activity to Topo I ([4]; preliminary screening) | IC50 ([5]; Homo sapiens, HepG2, 48 h) [µM] | IC50 ([6]; Homo sapiens, SMMC-7721, 48 h) [µM] | IC50 [7] [nM] | melting point [°C] | IC50 [5] [µM] | IC50 [6] [µM]
Cc1ccc2[nH]c3c(c2c1)C[C@@]1(C)C(CC[C@]2(C)C1CC=C1C4[C@@H](C)[C@H](C)CC[C@]4(C(=O)NCCCN(C)C)CC[C@]12C)C3(C)C (stereo partly shown) [5b, N-(3-(Dimethylamino)propyl)-5′-methyl-1′H-ursa-2,12-dieno[3,2-b]indol-28-carboxamide] | ~1000 | 38.2 | 72.5 | considerable inhibitory activity | 20.7 ± 1.73 | 9 | 34.2 | considerable inhibitory activity | 1.26 ± 0.17 | 1.08 ± 0.22 | ~1000 |  |  | 
Cc1ccc2[nH]c3c(c2c1)C[C@@]1(C)C(CC[C@]2(C)C1CC=C1C4[C@@H](C)[C@H](C)CC[C@]4(C(=O)NCCN4CCN(C)CC4)CC[C@]12C)C3(C)C (stereo partly shown) [4f, N-(2-(4-Methylpiperazin-1-yl)ethyl)-5′-methyl-1′H-ursa-2,12-dieno[3,2-b]indol-28-carboxamide] |  | 31.3 | 73.7 |  | 18.3 ± 0.78 |  | 0 |  | ~1 | ~1 |  | 188 to 190 | 1.35 ± 0.17 | 1.24 ± 0.16
CCN(CC)CCCCNC(=O)[C@]12CC[C@@H](C)[C@H](C)C1C1=CCC3[C@@]4(C)Cc5c([nH]c6ccc(C)cc56)C(C)(C)C4CC[C@@]3(C)[C@]1(C)CC2 (stereo partly shown) [6c, N-(4-(Diethylamino)butyl)-5′-methyl-1′H-ursa-2,12-dieno[3,2-b]indol-28-carboxamide] |  | 35.2 | 70 |  | 28.4 ± 2.98 | 0 | 16.8 |  | 3.45 ± 0.25 | 3.62 ± 0.23 |  | 132 to 134 |  | 
Cc1ccc2[nH]c3c(c2c1)C[C@@]1(C)C(CC[C@]2(C)C1CC=C1C4[C@@H](C)[C@H](C)CC[C@]4(C(=O)NCCCCNC(=O)[C@]45CC[C@@H](C)[C@H](C)C4C4=CCC6[C@@]7(C)Cc8c([nH]c9ccc(C)cc89)C(C)(C)C7CC[C@@]6(C)[C@]4(C)CC5)CC[C@]12C)C3(C)C (stereo partly shown) [7c, N,N′-(butane-1,4-diyl)-bis(5′-methyl-1′H-ursa-2,12-dieno[3,2-b]indol-28-carboxamide)] |  | 8.1 | 16.9 |  | > 50 |  | 0 |  | > 50 | > 50 |  | 255 to 258 |  | 
Cc1ccc2[nH]c3c(c2c1)C[C@@]1(C)C(CC[C@]2(C)C1CC=C1C4[C@@H](C)[C@H](C)CC[C@]4(C(=O)NCCNC(=O)[C@]45CC[C@@H](C)[C@H](C)C4C4=CCC6[C@@]7(C)Cc8c([nH]c9ccc(C)cc89)C(C)(C)C7CC[C@@]6(C)[C@]4(C)CC5)CC[C@]12C)C3(C)C (stereo partly shown) [7a, N,N′-(ethane-1,2-diyl)-bis(5′-methyl-1′H-ursa-2,12-dieno[3,2-b]indol-28-carboxamide)] |  | 9.7 | 23.8 |  | > 50 |  | 0 |  | > 50 | > 50 |  | 301 to 303 |  | 
Cc1ccc2[nH]c3c(c2c1)C[C@@]1(C)C(CC[C@]2(C)C1CC=C1C4[C@@H](C)[C@H](C)CC[C@]4(C(=O)NCCN4CCCCC4)CC[C@]12C)C3(C)C (stereo partly shown) [4d, N-(2-(Piperidin-1-yl)ethyl)-5′-methyl-1′H-ursa-2,12-dieno[3,2-b]indol-28-carboxamide] |  | 32.7 | 71.7 |  | 16 ± 1.07 | 0 | 13 |  | ~1 | ~1 |  | 195 to 197 | 1.47 ± 0.12 | 1.75 ± 0.11
Cc1ccc2[nH]c3c(c2c1)C[C@@]1(C)C(CC[C@]2(C)C1CC=C1C4[C@@H](C)[C@H](C)CC[C@]4(C(=O)NCCCCN(C)C)CC[C@]12C)C3(C)C (stereo partly shown) [6b, N-(4-(Dimethylamino)butyl)-5′-methyl-1′H-ursa-2,12-dieno[3,2-b]indol-28-carboxamide] |  | 31.7 | 69 |  | 18.2 ± 1.64 | 0 | 15.1 |  | 2.91 ± 0.18 | 2.43 ± 0.21 |  | 163 to 165 |  | 
Cc1ccc2[nH]c3c(c2c1)C[C@@]1(C)C(CC[C@]2(C)C1CC=C1C4[C@@H](C)[C@H](C)CC[C@]4(C(=O)NCCCN4CCCCC4)CC[C@]12C)C3(C)C (stereo partly shown) [5d, N-(3-(Piperidin-1-yl)propyl)-5′-methyl-1′H-ursa-2,12-dieno[3,2-b]indol-28-carboxamide] |  | 41.3 | 81.1 |  | 12.8 ± 0.83 |  | 0 |  | 1.04 ± 0.09 | 0.89 ± 0.11 |  | 183 to 185 |  | 
Cc1ccc2[nH]c3c(c2c1)C[C@@]1(C)C(CC[C@]2(C)C1CC=C1C4[C@@H](C)[C@H](C)CC[C@]4(C(=O)NCCN)CC[C@]12C)C3(C)C (stereo partly shown) [4a, N-(2-Aminoethyl)-5′-methyl-1′H-ursa-2,12-dieno[3,2-b]indol-28-carboxamide] |  | 25.9 | 69.7 |  | 29.6 ± 2.12 | 5.6 | 15.1 |  | 3.31 ± 0.35 | 3.5 ± 0.61 |  | 228 to 230 |  | 
Cc1ccc2[nH]c3c(c2c1)C[C@@]1(C)C(CC[C@]2(C)C1CC=C1C4[C@@H](C)[C@H](C)CC[C@]4(C(=O)NCCCCN4CCCCC4)CC[C@]12C)C3(C)C (stereo partly shown) [6d, N-(4-(Piperidin-1-yl)butyl)-5′-methyl-1′H-ursa-2,12-dieno[3,2-b]indol-28-carboxamide] |  | 32.8 | 72.5 |  | 18.7 ± 1.36 |  | 0 |  | 2.31 ± 0.21 | 2.72 ± 0.31 |  | 121 to 123 |  | 
